According to patent US20080076801A1, “Indolylalkylpyridin-2-amines for the inhibition of beta-secretase” (Wyeth, priority 2006, published 2008):

What was measured:
human BACE1 = human BACE1 (Homo sapiens, UniProt P56817); experiment: BACE1 fluorescent kinetic assay (cleavage of peptide substrate WABC-6); type: biochemical; settings: 5 μM inhibitor; 10 nM enzyme, 25 μM substrate, pH 4.5, room temperature; read-out: BACE-1 % Inhibition at 5 μM
Protocol: Evaluation of BACE1 Binding Affinity of Test Compounds
Fluorescent Kinetic Assays
Final Assay Conditions: 10 nM human BACE1 (or 10 nM Murine BACE1, 1.5 nM human BACE2), 25 μM substrate (WABC-6, MW 1549.6, from AnaSpec), Buffer: 50 mM Na-Acetate, pH 4.5, 0.05% CHAPS, 25% PBS, room temperature. Na-Acetate was from Aldrich, Cat.# 24, 124-5, CHAPS was from Research Organics, Cat. # 1304C 1×, PBS was from Mediatech (Cellgro), Cat# 21-031-CV, peptide substrate AbzSEVNLDAEFRDpa was from AnaSpec, Peptide Name: WABC-6
Determination of stock substrate (AbzSEVNLDAEFRDpa) concentration: ˜25 mM stock solution is made in DMSO using the peptide weight and MW, and diluted to ˜25 μM (1:1000) in 1×PBS. Concentration is determined by absorbance at 354 nm using an extinction coefficient ε of 18172 M^−1cm^−1, the concentration of stock substrate is corrected, and the substrate stock stored in small aliquots in −80° C. [Substrate Stock]=ABS^354 nm*10^6/18172 (in […]) The extinction coefficient ε^354 nm was adapted from TACE peptide substrate, which had the same quencher-fluorophore pair. Determination of Stock Enzyme Concentration: the stock concentration of each enzyme is determined by absorbance at 280 nm using an ε of 64150 M^−1cm^−1 for hBACE1 and MuBACE1, 62870 M^−1cm^−1 for hBACE2 in 6 M Guanidinium Hydrochloride (from Research Organics, Cat. # 5134G-2), pH ˜6. The extinction coefficient ε^280 nm for each enzyme was calculated based on known amino acid composition and published extinction coefficients for Trp ([…]) and Tyr ([…]) residues (Anal. Biochem. 182, 319-326). Dilution and mixing steps: total reaction volume: 100 μL
2× inhibitor dilutions in buffer A (66.7 mM Na-Acetate, pH 4.5, 0.0667% CHAPS) were prepared,
4× enzyme dilution in buffer A (66.7 mM Na-Acetate, pH 4.5, 0.0667% CHAPS) were prepared,
100 μM substrate dilution in 1×PBS was prepared, and
50 μL 2× Inhibitor, 25 μL 100 μM substrate are added to each well of 96-well plate (from DYNEX Technologies, VWR #: 11311-046), immediately followed by 25 μL 4× enzyme (added to the inhibitor and substrate mix), and the fluorescence readings are initiated.
Fluorescence Readings: Readings at λex 320 nm and λem 420 nm are taken every 40 sec for 30 min at room temperature and the linear slope for substrate cleavage rate (vi) determined.
Calculation of % Inhibition: % Inhibition=100*(1−vi/v0) vi: substrate cleavage rate in the presence of inhibitor v0: substrate cleavage rate in the absence of inhibitor IC50 Determination: % Inhibition=((B*IC50^n)+(100*I0^n))/(IC50^n+I0^n) (Model # 39 from LSW Tool Bar in Excel where B is the % inhibition from the enzyme control, which should be close to 0.) % Inhibition is plotted vs. Inhibitor Concentration (I0) and the data fit to the above equation to obtain IC50 value and Hill number (n) for each compound. Testing at least 10 different inhibitor concentrations is preferred.

Chain of human BACE1 (P56817 46-501): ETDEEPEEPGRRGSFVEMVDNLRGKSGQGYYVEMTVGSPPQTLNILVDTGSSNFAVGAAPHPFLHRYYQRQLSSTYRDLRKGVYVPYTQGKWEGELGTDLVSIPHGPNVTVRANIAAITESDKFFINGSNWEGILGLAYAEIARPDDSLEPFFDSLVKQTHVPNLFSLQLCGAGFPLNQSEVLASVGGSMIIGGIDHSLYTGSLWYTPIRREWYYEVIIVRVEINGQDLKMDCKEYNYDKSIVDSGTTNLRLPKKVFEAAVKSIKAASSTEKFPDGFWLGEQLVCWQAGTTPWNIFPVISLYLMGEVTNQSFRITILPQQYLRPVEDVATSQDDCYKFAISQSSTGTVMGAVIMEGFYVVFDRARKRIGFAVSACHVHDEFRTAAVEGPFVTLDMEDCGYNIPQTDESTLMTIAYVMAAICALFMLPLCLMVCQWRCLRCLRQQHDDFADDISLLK

SMILES	inhibition at 5 µM (human BACE1) [%]	melting point [°C]
N#CCCCOc1ccc2cc(-c3ccccc3Cl)n(Cc3cccc(N)n3)c2c1 [Example 8, 4-{[1-[(6-aminopyridin-2-yl)methyl]-2-(2-chlorophenyl)-1H-indol-6-yl]oxy}butanenitrile]	79	–
Nc1cccc(Cn2c(-c3ccccc3Cl)cc3ccc(OCc4ccccc4)cc32)n1 [Example 9, 6-{[6-(benzyloxy)-2-(2-chlorophenyl)-1H-indol-1-yl]methyl}pyridin-2-amine]	31.6	64 to 66
N#Cc1cccc(COc2ccc3cc(-c4ccccc4Cl)n(Cc4cccc(N)n4)c3c2)c1 [Example 10, 3-({[1-[(6-aminopyridin-2-yl)methyl]-2-(2-chlorophenyl)-1H-indol-6-yl]oxy}methyl)benzonitrile]	58	65 to 67
Nc1cccc(Cn2c(-c3ccccc3Cl)cc3ccc(OCc4cccc(F)c4)cc32)n1 [Example 11, 6-({2-(2-chlorophenyl)-6-[(3-fluorobenzyl)oxy]-1H-indol-1-yl}methyl)pyridin-2-amine]	49.5	60 to 64
Nc1cccc(Cn2c(-c3ccccc3Cl)cc3ccc(OCc4cc(F)ccc4F)cc32)n1 [Example 12, 6-({2-(2-chlorophenyl)-6-[(2,5-difluorobenzyl)oxy]-1H-indol-1-yl}methyl)pyridin-2-amine]	33.2	65 to 68
Nc1cccc(Cn2c(-c3ccccc3Cl)cc3ccc(OCc4cccc(C(F)(F)F)c4)cc32)n1 [Example 13, 6-[(2-(2-chlorophenyl)-6-{[3-(trifluoromethyl)benzyl]oxy}-1H-indol-1-yl)methyl]pyridin-2-amine]	13.8	60 to 62
COc1cccc(COc2ccc3cc(-c4ccccc4Cl)n(Cc4cccc(N)n4)c3c2)c1 [Example 14, 6-({2-(2-chlorophenyl)-6-[(3-methoxybenzyl)oxy]-1H-indol-1-yl}methyl)pyridin-2-amine]	36.3	67 to 69
CCCOc1ccc2cc(-c3ccccc3Cl)n(Cc3cccc(N)n3)c2c1 [Example 15, 6-{[2-(2-chlorophenyl)-6-propoxy-1H-indol-1-yl]methyl}pyridin-2-amine]	38.6	128 to 130
COc1ccc2cc(-c3ccccc3Cl)n(Cc3cccc(N)n3)c2c1 [Example 16, 6-{[2-(2-chlorophenyl)-6-methoxy-1H-indol-1-yl]methyl}pyridin-2-amine]	30.1	174 to 176
Nc1cccc(Cn2c(-c3ccccc3Cl)cc3ccc(Oc4cncnc4)cc32)n1 [Example 17, 6-{[2-(2-chlorophenyl)-6-(pyrimidin-5-yloxy)-1H-indol-1-yl]methyl}pyridin-2-amine]	39.8	115 to 117
Nc1cccc(Cn2c(-c3ccccc3Cl)cc3ccc(Br)cc32)n1 [Example 19, 6-{[6-Bromo-2-(2-chlorophenyl)-1H-indol-1-yl]methyl}pyridin-2-amine]	31.7	189 to 191
Nc1cccc(Cn2c(-c3ccccc3Cl)cc3ccc(C#CCCO)cc32)n1 [Example 20, 4-{1-[(6-Aminopyridin-2-yl)methyl]-2-(2-chlorophenyl)-1H-indol-6-yl}but-3-yn-1-ol]	67.5	–
Nc1cccc(Cn2c(-c3ccccc3Cl)cc3ccc(C#CCCF)cc32)n1 [Example 21, 6-{[6-(4-fluorobutyn-1-yl)-2-(2-chlorophenyl)-1H-indol-1-yl]methyl}pyridin-2-amine]	56.6	–
Nc1cccc(Cn2c(-c3ccccc3Cl)cc3ccc(C#CCCCO)cc32)n1 [Example 22, 5-{1-[(6-Aminopyridin-2-yl)methyl]-2-(2-chlorophenyl)-1H-indol-6-yl}pent-4-yn-1-ol]	71.2	–
Nc1cccc(Cn2c(-c3ccccc3Cl)cc3ccc(C#CCCCCO)cc32)n1 [Example 23, 6-{1-[(6-Aminopyridin-2-yl)methyl]-2-(2-chlorophenyl)-1H-indol-6-yl}hex-5-yn-1-ol]	81.1	–
Nc1cccc(Cn2c(-c3ccccc3Cl)cc3ccc(CCCCO)cc32)n1 [Example 24, 4-[1-(6-Aminopyridin-2-ylmethyl)-2-(2-chlorophenyl)-1H-indol-6-yl]butan-1-ol]	71.8	–
Nc1cccc(Cn2c(-c3ccccc3Cl)cc3ccc(CCCCCO)cc32)n1 [Example 25, 5-[1-(6-Aminopyridin-2-ylmethyl)-2-(2-chlorophenyl)-1H-indol-6-yl]pentan-1-ol]	77.3	–
Nc1cccc(Cn2c(-c3ccccc3Cl)cc3ccc(CCCCCCO)cc32)n1 [Example 26, 6-[1-(6-Aminopyridin-2-ylmethyl)-2-(2-chlorophenyl)-1H-indol-6-yl]hexan-1-ol]	107	–
COCCC#Cc1ccc2cc(-c3ccccc3Cl)n(Cc3cccc(N)n3)c2c1 [Example 27, 6-{[2-(2-Chlorophenyl)-6-(4-methoxybut-1-yn-1-yl)-1H-indol-1-yl]methyl}pyridin-2-amine]	51	–
COCCCC#Cc1ccc2cc(-c3ccccc3Cl)n(Cc3cccc(N)n3)c2c1 [Example 28, 6-{[2-(2-Chlorophenyl)-6-(5-methoxypent-1-yn-1-yl)-1H-indol-1-yl]methyl}pyridin-2-amine]	53	–
Nc1cccc(Cn2c(-c3ccccc3)cc3ccccc32)n1 [Example 30]	24.6	45 to 47
Nc1cccc(Cn2c(-c3ccccc3Cl)cc3ccc(C#CCCCF)cc32)n1 [Example 31, 6-{[2-(2-chlorophenyl)-6-(5-fluoropent-1-yn-1-yl)-1H-indol-1-yl]methyl}pyridin-2-amine]	64.6	–
Nc1cccc(Cn2c(-c3ccccc3Cl)cc3ccc(C#CCCCCF)cc32)n1 [Example 32, 6-{[2-(2-chlorophenyl)-6-(6-fluorohex-1-yn-1-yl)-1H-indol-1-yl]methyl}pyridin-2-amine]	53.4	–
